Read-outs that look alike come from different tables or passages of the source.

Results on five compounds are retold here after patent US20080242649A1, “New Combination 665” (priority 2007, published 2008).

The test system of experiment [1] is LPS-induced intra-alveolar neutrophilia. The experiment is described as follows: Intra-alveolar neutrophil migration after intratracheal LPS challenge in the CRL:CD rat. In kind it is in vivo. As to the method:
Evaluation of Compound Activity on Intra-Alveolar Neutrophil Migration after Intratracheal Challenge with Lipopolysacharride (LPS) in the CRL:CD Rat
LPS challenge in CRL:CD rats causes an influx of neutrophils into the lungs. Under recoverable gaseous anaesthesia (5% isoflorane in oxygen), rats were dosed via the intratracheal route with vehicle (0.05M phosphate, 0.1% Tween 80, 0.6% saline, pH 6), or compound 30 min before challenge with an intratracheal dose of 10 μg/kg LPS.
The rats (250-400 g) were euthanized 4 hr after LPS challenge with 1 mL pentobarbitone sodium. A tracheotomy was performed and a cannula inserted. The airway was then lavaged using 3 mL Isoton at room temperature. The Isoton (BeckmanCoulter, High Wycombe, UK) was left in the airway for 10 seconds before being removed. The bronchio-alveolar lavage (BAL) fluid containing inflammatory cells was placed into a 15 mL centrifuge tube and kept on ice. This process was repeated three times. An aliquot of BAL fluid was removed and the inflammatory cells were counted on Sysmex (Sysmex UK, Milton Keynes). Neutrophils were expressed in millions/animal (mean ±s.e.mean).

Experiment [2] relates to guinea pig trachea. The experiment in a line: Bronchodilator onset in guinea pig isolated tracheal ring contracted with methacholine. The conditions noted are these: roflumilast 1 μM alone. As to the method: Evaluation of Bronchodilator Activity in the Guinea Pig Isolated Tracheal Ring Preparation
Guinea pigs (300-500 g) were killed by cervical dislocation and the trachea was isolated. The trachea was cut into segments 2-3 cartilage rings in width and suspended in 10 ml organ baths in modified Krebs' solution (mM; NaCl, 90; NaHCO3, 45; KCl, 5; MgSO4.7H2O, 0.5; Na2HPO4.2H2O, 1; CaCl2, 2.25; glucose, 10; pH 7.4) gassed with 5% CO2, 95% […] at 37° C.). The tracheal rings were attached to an isometric force transducer for the measurement of isometric tension. The tissues were washed and a force of 1 g was applied to each tissue. The rings were contracted with methacholine (1 μM). Once the contraction had reached a plateau, vehicle (0.01% DMSO in distilled H2O), compound A (3 nM), roflumilast (1 μM) or a combination of compound A (3 nM) and roflumilast (1 μM) was added and the tissue left until the response had reached a plateau. Data were collected using the Chart 4 software (ADInstruments, Charlgrove, UK). The time to 90% of the maximum effect of the bronchodilator (onset time) was measured and expressed in min (mean ±s.e.mean).

Experiment [3] deals with histamine-induced bronchoconstriction. The experiment is described as follows: Lung function in anaesthetized guinea-pigs, histamine challenge. In kind it is in vivo, Dunkin-Hartley guinea pig. As to the method:
(§1) Evaluation of Lung Function in Anaesthetized Guinea-Pigs
(§2) Male Dunkin-Hartley guinea pigs (300-600 g) were weighed and dosed with vehicle (0.05M phosphate, 0.1% Tween 80, 0.6% saline, pH 6) or compound via the intratracheal route under recoverable gaseous anaesthesia (5% halothane in oxygen). Animals were dosed with compound or vehicle two hours prior to the administration of histamine or methacholine.
(§3) Guinea pigs were anaesthetized with pentobarbitone (1 mL/kg of 60 mg/mL solution i.p.) approximately 30 minutes prior to the first bronchoconstrictor administration. The trachea was cannulated and the animal ventilated using a constant volume respiratory pump (Harvard Rodent Ventilator model 683) at a rate of 60 breath/min and a tidal volume of 5 ml/kg. A jugular vein was cannulated for the administration of histamine, methacholine or maintenance anaesthetic (0.1 mL of pentobarbitone solution, 60 mg/mL, as required).
(§4) The animals were transferred to a Flexivent System (SCIREQ, Montreal, Canada) in order to measure airway resistance. The animals were ventilated (quasi-sinusoidal ventilation pattern) at 60 breaths/min at a tidal volume of 5 mL/kg. A positive end expiratory pressure of 2-3 cmH2O was applied. Respiratory resistance was measured using the Flexivent “snapshot” facility (1 second duration, 1 Hz frequency). Once stable baseline resistance value had been obtained the animals were given histamine or methacholine in ascending doses (0.5, 1, 2, 3 and 5 μg/kg, i.v.) at approximately 4-minute intervals via the jugular catheter. After each administration of bronchoconstrictor the peak resistance value was recorded. Guinea pigs were euthanized with approximately 1.0 mL pentobarbitone sodium (Euthatal) intravenously after the completion of the lung function measurements. Percentage bronchoprotection produced by a compound was calculated at each dose of brochoconstrictor as follows:
(§5) Where % change Rveh is the mean of the maximum percentage change in airway resistance in the vehicle treated group. The results reported were measured after 5 μg/kg histamine or methacholine and were expressed as percentage bronchoprotection (mean ±s.e.mean).

In experiment [4] the test system is LPS-induced TNFα production. The experiment in a line: Inhibition of LPS-induced TNFα production in human PBMCs. The conditions noted are these: for inhibition at 0.03 µM: Homo sapiens, PBMC. The class given is cell-based. Here is the method:
Inhibition of Lipopolysacchamide (LPS)-Induced TNFα Production in Human Peripheral Blood Mononuclear Cells
The cells were then incubated with LPS (1 μg/mL) for 4 hours at 37° C. to induce TNFα production. At the end of the incubation period, the plates were centrifuged (300 g, 10 minutes) and 100 μL of the culture supernatant was analysed to quantify the TNFα released using a Fluorescence-linked immunosorbance assay (FLISA) assay kit (R&D Systems). Fluorescence levels were read on an FMAT plate reader. Inhibition curves were fitted using a 4-parameter logistic equation in a non-linear curve fitting routine and activity was expressed as pIC50 (mean ±s.e.mean).

The subject of experiment [5] is methacholine-induced bronchoconstriction. The experiment in a line: Lung function in anaesthetized guinea-pigs, methacholine challenge. In kind it is in vivo, Dunkin-Hartley guinea pig. As to the method: as §1, §2, §3, §4, §5

In turn, `CCCC1O[C@@H]2C[C@H]3[C@@H]4CCC5=CC(=O)C=C[C@]5(C)[C@H]4[C@@H](O)C[C@]3(C)[C@]2(C(=O)CO)O1` (some centres unmarked) [Budesonide, reference compound] came in with an inhibition of neutrophilia in experiment [1] (budesonide 0.1 μg/kg intratracheal 30 min prior to LPS) of 51%. In experiment [1] (budesonide 0.1 μg/kg intratracheal, vehicle/LPS 14±1.6), the “neutrophils in BAL” value is given as 7.1±0.77 million/animal.
In experiment [1] (Compound W 3 ng/kg intratracheal), `CNC(=O)c1cc(Cl)c(OC(C)(C)C(=O)O)cc1OC[C@@H](O)CN1CCC2(CC1)Cc1cc(Cl)ccc1O2` [Compound W, 2-{2-Chloro-5-{[(2S)-3-(5-chloro-1′H,3H-spiro[1-benzofuran-2,4′-piperidin]-1′-yl)-2-hydroxypropyl]oxy}-4-[(methylamino)carbonyl]phenoxy}-2-methylpropanoic acid] returned an inhibition of neutrophilia of 56%. Further, the “neutrophils in BAL” value in experiment [1] (Compound W 3 ng/kg, vehicle/LPS 11±1.8) is given as 6.3±1.1 million/animal.
In turn, `CC(=O)Nc1ccc(O)cc1OC[C@@](C)(O)CNC1CCN(Cc2ccc(Cl)cc2)CC1` [Compound X, N-{2-[((2S)-3-{[1-(4-chlorobenzyl)piperidin-4-yl]amino}-2-hydroxy-2-methylpropyl)oxy]-4-hydroxyphenyl}acetamide] came in with an inhibition of neutrophilia in experiment [1] (Compound X 30 μg/kg intratracheal) of 30%. For the same compound, the “neutrophils in BAL” value in experiment [1] (Compound X 30 μg/kg, vehicle/LPS 12±1.7) stood at 8.5±0.75 million/animal.
For orientation: inhibition means the relative decrease from the control value, in per cent. For `O=C(Nc1c(Cl)cncc1Cl)c1ccc(OC(F)F)c(OCC2CC2)c1` [Roflumilast, 3-(cyclopropylmethoxy)-N-(3,5-dichloro-4-pyridinyl)-4-(difluoromethoxy)benzamide, reference compound], in experiment [2], the “onset time (time to 90% of the maximum effect)” value was determined as 26 ± 1.4 min. For the same compound, the “inhibition of histamine-induced bronchoconstriction” value in experiment [3] (roflumilast 1 mg/kg intratracheal 2 h before, histamine 5 μg/kg i.v.) is listed as 35%. In experiment [3] (roflumilast 1 mg/kg intratracheal, histamine 5 μg/kg, vehicle 1100±161%), this compound showed an increase in bronchoconstriction of 695±177%. In addition, the inhibition at 0.03 µM in experiment [4] (roflumilast 30 nM alone, PBMCs, LPS 1 μg/mL, read-out: inhibition of LPS-induced TNFα production) came out at 70 ± 4.1%; in experiment [4] (roflumilast 30 nM in the presence of 30 nM compound A, read-out: maximum inhibition of TNFα production), 92 ± 0.4%. Further, the “maximum inhibition of TNFα production” value in experiment [4] (roflumilast 30 nM in the presence of 3 nM compound A) was 82±2.3%.
In experiment [5] (tiotropium bromide 0.03 pg/kg intratracheal, methacholine 5 μg/kg, vehicle 1898±211%), `C[N+]1(C)[C@@H]2C[C@@H](OC(=O)C(O)(c3cccs3)c3cccs3)C[C@H]1[C@@H]1O[C@@H]12` [tiotropium bromide, reference compound] showed an increase in resistance of 1656±269%. The “inhibition of methacholine-induced bronchoconstriction” value in experiment [5] (tiotropium bromide intratracheal 2 h before, methacholine 5 μg/kg i.v.) came to 13%.
